Two compounds from ChEMBL document CHEMBL4715750, “Synthesis and in vitro, ex-vivo and in vivo activity of hybrid compounds linking a potent ROS and RNS scavenger activity with diverse substrates addressed to pass across the blood-brain barrier” (Eur J Med Chem, 2016) can be followed below.

Data set [1] relates to SH-SY5Y. The data set can be described thus: Antioxidant activity in human SH-SY5Y cells assessed as inhibition of H2O2-induced DCFH oxidation measured after 1 hr by DCFH-DA dye based fluorescence assay. It counts as functional, cell-based.
Data set [2] can be described thus: Drug concentration in Sprague-Dawley rat brain at 0.2 mmol/Kg, ip measured after 1 hr by HPLC based fluorimetric analysis. The conditions noted are these: in vivo. It counts as ADME, organism-based.
The nature of data set [3]: Permeability of the compound at pH 7.4 by PAMPA-BBB assay. In kind it is ADME. The conditions noted are these: read-out: permeability. For orientation: The PAMPA barrier holds no transporters, so it reflects passive diffusion.
In data set [4] the test system is SH-SY5Y. The data set can be described thus: Cytoprotective activity against DMSO-induced toxicity in human SH-SY5Y cells. In kind it is functional, cell-based.
Data set [5] can be described thus: Cytotoxicity against human SH-SY5Y cells assessed as cell viability at 6.3 uM measured after 24 hrs by MTT assay relative to control. It counts as cell-based. The conditions noted are these: read-out: Activity. (Formazan colour is commonly taken as a measure of viable cells.)
Data set [6] can be described thus: Cytotoxicity against human SH-SY5Y cells assessed as cell viability at 1.6 uM measured after 24 hrs by MTT assay relative to control. It counts as cell-based. The conditions noted are these: read-out: Activity.
A short description of data set [7]: Cytotoxicity against human SH-SY5Y cells assessed as cell viability at 12.5 uM measured after 2 hrs by MTT assay relative to control. It counts as cell-based. The conditions noted are these: read-out: Activity.
A short description of data set [8]: Drug concentration in Sprague-Dawley rat plasma at 0.2 mmol/Kg, ip measured after 1 hr by HPLC based fluorimetric analysis. In kind it is ADME, organism-based.
A short description of data set [9]: Cytotoxicity against human SH-SY5Y cells assessed as cell viability at 50 uM measured after 2 hrs by MTT assay relative to control. The conditions noted are these: read-out: Activity. In kind it is cell-based.
A short description of data set [10]: Cytotoxicity against human SH-SY5Y cells assessed as cell viability at 3.1 uM measured after 24 hrs by MTT assay relative to control. In kind it is cell-based. The conditions noted are these: read-out: Activity.
A short description of data set [11]: Cytotoxicity against human SH-SY5Y cells assessed as cell viability at 25 uM measured after 24 hrs by MTT assay relative to control. It counts as cell-based. The conditions noted are these: read-out: Activity.
A short description of data set [12]: Cytotoxicity against human SH-SY5Y cells assessed as cell viability at 25 uM measured after 2 hrs by MTT assay relative to control. The conditions noted are these: read-out: Activity. In kind it is cell-based.
Data set [13] can be described thus: Retention time in Sprague-Dawley rat brain by HPLC based fluorimetric analysis. In kind it is ADME, tissue-based.
Data set [14] in a line: Cytotoxicity against human SH-SY5Y cells assessed as cell viability at 50 uM measured after 24 hrs by MTT assay relative to control. It counts as cell-based. The conditions noted are these: read-out: Activity.
Data set [15] is described as follows: Cytotoxicity against human SH-SY5Y cells assessed as cell viability at 6.3 uM measured after 2 hrs by MTT assay relative to control. It counts as cell-based. The conditions noted are these: read-out: Activity.
The nature of data set [16]: Cytotoxicity against human SH-SY5Y cells assessed as cell viability at 100 uM measured after 2 hrs by MTT assay relative to control. It counts as cell-based. The conditions noted are these: read-out: Activity.
Data set [17] can be described thus: Cytotoxicity against human SH-SY5Y cells assessed as cell viability at 0.8 uM measured after 24 hrs by MTT assay relative to control. It counts as cell-based. The conditions noted are these: read-out: Activity.
Data set [18] in a line: Cytotoxicity against human SH-SY5Y cells assessed as cell viability at 12.5 uM measured after 24 hrs by MTT assay relative to control. In kind it is cell-based. The conditions noted are these: read-out: Activity.
Data set [19] is described as follows: Cytotoxicity against human SH-SY5Y cells assessed as cell viability at 100 uM measured after 24 hrs by MTT assay relative to control. In kind it is cell-based. The conditions noted are these: read-out: Activity.
Data set [20] in a line: Cytotoxicity against human SH-SY5Y cells assessed as cell viability at 1.6 uM measured after 2 hrs by MTT assay relative to control. The conditions noted are these: read-out: Activity. In kind it is cell-based.
A short description of data set [21]: Cytotoxicity against human SH-SY5Y cells assessed as cell viability at 3.1 uM measured after 2 hrs by MTT assay relative to control. It counts as cell-based. The conditions noted are these: read-out: Activity.
Data set [22] in a line: Cytotoxicity against human SH-SY5Y cells assessed as cell viability at 0.8 uM measured after 2 hrs by MTT assay relative to control. In kind it is cell-based. The conditions noted are these: read-out: Activity.
The nature of data set [23]: Antioxidant activity assessed as DPPH radical scavenging activity incubated for 60 mins in absence of light. In kind it is functional. (In general: DPPH is a stable violet radical that fades when it is reduced.)
Data set [24] in a line: Retention time in Sprague-Dawley rat plasma by HPLC based fluorimetric analysis. It counts as ADME, cell-free.

The source made the active and inactive calls. No cut-off for these calls is given here.

`COc1cc2c(cc1O)CCC(C)(CC(N)C(=O)O)O2` (stereo not drawn): in data set [1], the Activity result was “Dose-dependent effect” and the half-maximal inhibitory concentration (IC50) was over 200 µM. Moreover, the Ct in [2] was determined as 15.8 nmol/g. In addition, in data set [3], the Papp turned out to be 0.04 ×10⁻⁶ cm/s. In addition, the result in data set [4] was Active. Further, in data set [5], the viability at 24 h, 6.3 µM was found to be 100%. For the same compound, the viability at 24 h, 1.6 µM in data set [6] was determined as 100%. The viability at 2 h, 12.5 µM in data set [7] was found to be 100%. Also, the concentration at 1 h in [8] came out at 52.3 µM. For the same compound, in [9], the viability at 2 h, 50 µM stood at 100%. Also, the viability at 24 h, 3.1 µM in data set [10] came out at 100%. In [11], the viability at 24 h, 25 µM was found to be 88.5%. The viability at 2 h, 25 µM in data set [12] came to 100%. In data set [13], this compound showed a Retention_time of 7 min. Further, the viability at 24 h, 50 µM in [14] was found to be 85.7%. Moreover, the viability at 2 h, 6.3 µM in data set [15] worked out at 100%. Besides, the viability at 2 h, 100 µM in data set [16] is 87.8%. Further, the viability at 24 h, 0.8 µM in data set [17] came to 82.7%. In addition, the viability at 24 h, 12.5 µM in data set [18] is 100%. In data set [19], the viability at 24 h, 100 µM was 60.1%. In [20], the viability at 2 h, 1.6 µM was found to be 100%. The viability at 2 h, 3.1 µM in data set [21] was determined as 100%. Also, in data set [22], the viability at 2 h, 0.8 µM came out at 100%. Besides, the IC50 in data set [23] is 14.1 µM.

Turning to `COc1cc2c(cc1O)CCC(C)(C)O2`, the Activity result in data set [1] was “Dose-dependent effect”. The IC50 in data set [1] was determined as 21.7 µM; in data set [23], 14.1 µM. Also, the Ct in data set [2] amounted to 4 nmol/g. The Papp in data set [3] turned out to be 0.25 ×10⁻⁶ cm/s. In addition, in data set [5], the viability at 24 h, 6.3 µM turned out to be 98%. Further, in data set [6], the viability at 24 h, 1.6 µM is 93.9%. Further, the viability at 2 h, 12.5 µM in data set [7] amounted to 91.5%. In data set [8], the concentration at 1 h amounted to 2.4 µM. Further, the viability at 2 h, 50 µM in data set [9] worked out at 86.8%. Besides, the Retention_time in [24] and in [13] was 8 min in each case. Besides, the viability at 24 h, 3.1 µM in data set [10] worked out at 99.4%. For the same compound, the viability at 24 h, 25 µM in data set [11] is 93.2%. The viability at 2 h, 25 µM in data set [12] was determined as 90.6%. In addition, in data set [14], the viability at 24 h, 50 µM came to 95.2%. Besides, the viability at 2 h, 6.3 µM in data set [15] was 92.2%. For the same compound, the viability at 2 h, 100 µM in data set [16] worked out at 66.9%. The viability at 24 h, 0.8 µM in data set [17] is 91.1%. Besides, the viability at 24 h, 12.5 µM in data set [18] was found to be 100%. Further, the viability at 24 h, 100 µM in data set [19] amounted to 96.1%. Also, the viability at 2 h, 1.6 µM in data set [20] was found to be 94.1%. In addition, the viability at 2 h, 3.1 µM in [21] was determined as 85.6%. Also, in data set [22], the viability at 2 h, 0.8 µM turned out to be 98.5%.

A word on the IC50: it is the concentration that inhibits the measured activity by half.
